Values quoted from earlier work as cited in publication PMC12333940, “A prometabolite strategy inhibits cardiometabolic disease in an ApoE^–/– murine model of atherosclerosis” (JCI Insight, 2025).

Set-up: method as in printed
Settings: oral administration of exogenous butyrate; background statement, ref not given; cited from earlier work

Compound: CCCC(=O)O [butyrate, Butyrate]
- absorption into circulation, plasma concentration: 3 to 4 mM
